In US20190070165A1, “N-HYDROXYISOQUINOLINEDIONE INHIBITORS OF HBV REPLICATION” (Saint Louis University, priority 2016, published 2019):
Where two headings read alike, the source gives them in different places.

Key:
[1] = test system: HBV replication; experiment: Chou-Talalay synergy analysis with Lamivudine against HBV replication; conditions: CI <1.0 indicates synergy
Protocol: Chou-Talaly analysis yields a combination index (CI). CI values <1.0 indicate synergy, CIs of approximately 1.0 indicate additive interactions, and CI values >1.0 indicate antagonism. CI values are calculated at various efficacy levels (EC50, EC75, EC90, and EC95), and a weighted CI value favoring higher efficacy levels is also generated.

[2] = test system: patient-derived RNAseH enzymes; experiment: Biochemical RNAseH assay with variant patient-derived RNAseH enzymes; design: species or system Hepatitis B virus; conditions: compounds at their respective IC50 values, four genotype D enzymes
Protocol: HBV has 8 genotypes differing in sequence by 8%. Genetic diversity in the RNAseH domain is about 6%, which is easily high enough to modulate viral sensitivity to RNAseH inhibitors. […] Twelve purified, patient-derived RNAseH enzymes (4 from each genotypes B, C and D) were tested with the compounds at their respective IC50 values in a biochemical RNAseH assay. […] Equivalent results were obtained for all 12 enzymes against compounds #1 and #46. Therefore, HBV's high genetic variation is unlikely to present a substantial barrier to drug development.

[3] = test system: HBV replication; experiment: HBV replication inhibition assay in HepDES19 cells (strand-preferential q-PCR); type: cell-based, Hepatitis B virus; conditions: Hepatitis B virus
Protocol: HBV replication assay. […] Cells were seeded into 6-well plates and incubated in DMEM/F12, 10% fetal bovine serum (FBS), 1% penicillin/streptomycin (P/S) with 1 μg/mL tetracycline. Tetracycline was withdrawn after 24 hours. The test compound was applied to duplicate wells 48 hours later in medium containing a final DMSO concentration of 1%, and medium containing the compound was refreshed daily for the following two days. Cells were harvested and non-encapsidated nucleic acids were digested with micrococcal nuclease (New England Biolabs). HBV DNA was purified from capsids using QIAamp Cador Pathogen Mini Kit (Qiagen) with proteinase K incubation overnight at 37° C. TaqMan PCR was performed for 40 cycles at an annealing temperature of 60° C.
Thirty-nine HID, HPD, flutimide, and related POH compounds (Structures shown in FIG. 3) were screened for their ability to inhibit HBV replication in HepDES19 cells. […] Inhibition was calculated as the amount of plus-polarity DNA relative to the DMSO treated controls.
Briefly, HepDES19 were seeded in 12-well plates at 2×10^5 cells per well in the absence of tetracycline. Test compound was applied to cells 48 hours after removal of tetracycline. […] HBV DNA was purified from capsids using a QIAamp pathogen minikit with proteinase K digestion extended to overnight at 37° C. TaqMan PCR was performed for 40 cycles with an annealing temperature of 60° C.

[4] = target: T1, HBV RNaseH (Hepatitis B virus genotype D subtype ayw, UniProt P03156); experiment: Molecular beacon RNaseH assay; conditions: for inhibition in the molecular beacon assay: 2.1 μg purified HBV RNaseH; for Inhibition of HBV RNaseH, Molecular Beacon cleavage assay: Table 3, 0 to 500 μM
Target sequence in this assay (P03156 671-832): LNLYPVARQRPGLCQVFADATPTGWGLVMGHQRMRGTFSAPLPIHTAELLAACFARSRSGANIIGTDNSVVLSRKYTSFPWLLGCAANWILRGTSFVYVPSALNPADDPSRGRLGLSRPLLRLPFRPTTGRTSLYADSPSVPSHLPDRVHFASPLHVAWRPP
Protocol: In this assay, a hairpin DNA oligonucleotide labeled with fluorescein on one end and a quencher on the other is held in a linear conformation by annealing to a complementary RNA; cleavage of the RNA causes the DNA to fold into a hairpin, suppressing fluorescence (FIG. 8A).
The substrate is a hairpin DNA oligonucleotide with a 5′ fluorescein reporter and a 3′ black hole quencher annealed to a complementary RNA oligonucleotide. The reaction was initiated by adding 5 mM Mg^++, and fluorescence was monitored at 37° C. with a Synergy 4 96-well plate reader. Inhibition was qualitatively determined as a dose-dependent reduction in the rate of substrate degradation.

[5] = target: T1, HBV RNaseH; conditions: for Inhibition of HBV RNaseH, Oligonucleotide directed cleavage assay: Table 3, compounds at 100, 60 and 20 μM, compounds 1-91 and 138-140 previously reported (Cai et al., 2014)
Target sequence in this assay (P03156 671-832): as above
Protocol: RNaseH expression and purification. […] The enriched extracts were dialyzed into 50 mM HEPES pH 7.3, 300 mM NaCl, 20% glycerol, and 5 mM DTT and stored in liquid nitrogen.
Oligonucleotide-directed RNA cleavage assay. […] This mixture was incubated with test compounds in 50 mM Tris pH 8.0, 190 mM NaCl, 5 mM MgCl2, 3.5 mM DTT, 0.05% NP40, 6% glycerol, and 1% DMSO at 42° C. for 90 minutes. Cleavage products were resolved by denaturing polyacrylamide gel electrophoresis, detected by autoradiography, and quantified using ImageJ. Non-specific background values were determined from the incorrect oligonucleotide negative control lane and subtracted from all experimental values. IC50 values were then calculated with GraphPad Prism using three-parameter log(inhibitor) vs. response non-linear curve fitting with the curve minimum set to zero to reflect background subtraction.
The HBV RNaseH inhibition activity of the 16 previously untested compounds was examined using an oligonucleotide-directed cleavage assay. Compounds were incubated with the HBV RNaseH, a ^32P-labeled RNA substrate plus a complementary DNA oligonucleotide and compounds at 100, 60, and 20 μM and the amount of the RNA cleavage products was measured following resolution on an acrylamide gel.
Briefly, a ^32P-labeled RNA was combined with a DNA oligonucleotide and the RNA:DNA substrate was incubated in the presence of the RNaseH and test compounds in 50 mM tris pH 8.0, 190 mM NaCl, 5 mM MgCl2, 3.5 mM DTT, 0.05% NP40, 6% glycerol, and 1% DMSO at 42° C. for 90 minutes. The products were resolved by gel electrophoresis and detected by audioradioagraphy.

[6] = test system: HSV-1; experiment: HSV-1 replication inhibition assay in Vero cells; type: cell-based, herpes simplex virus 1; conditions: Human alphaherpesvirus 1, 24 h; 5 μM, Vero cells; read-out: HSV-1 suppression (log10 at 5 μM), class symbol
Protocol: Thirty-seven compounds were counter-screened for efficacy against HSV-1 to evaluate specificity of the inhibitors and to help determine if the efficacy against HBV replication may be due to an unsuspected indirect effect on the cells. Vero cells infected with HSV-1 at an MOI of 0.1 were treated with 5 μM of compound for 24 hours. Inhibition was calculated as log 10 suppression of plaque forming units compared with DMSO vehicle control.
Vero cells were maintained DMEM supplemented with 3% newborn calf serum, 3% bovine growth serum, 2 mM L-glutamine, and P/S. Test compounds were applied to the cells in the presence of 0.05% DMSO. The herpes simplex virus 1 (HSV-1) strain used for screening was a de-identified clinical isolate from the Saint Louis University Hospital passaged once in culture.
Compounds and virus were diluted in phosphate buffered saline (PBS) containing 2% newborn calf serum and 2 mM L-glutamine so that the final concentration of compound was 5 μM. The cells were incubated at 37° C. for 1 hour with the virus containing inoculum, then the inoculum was removed and the wells were washed once in PBS. Compound diluted to 5 μM in supplemented DMEM was added and cells were incubated at 37° C. for an additional 23 hours. The plates were then microscopically inspected for cytopathic effect (CPE) or toxicity and then frozen at −80° C. Virus titers for wells with limited CPE compared to DMSO vehicle-treated controls were then determined by plaque assay on Vero cells. Each experiment was repeated at least once.

[7] = target: T2, human RNaseH1 (Homo sapiens, UniProt O60930); experiment: Oligonucleotide-directed RNA cleavage assay, human RNaseH1; type: biochemical; conditions: for Human RNaseH1: Table 1, qualitative inhibition
T2 construct: made in house; host or cells: E. coli
T2 sequence (O60930 1-286): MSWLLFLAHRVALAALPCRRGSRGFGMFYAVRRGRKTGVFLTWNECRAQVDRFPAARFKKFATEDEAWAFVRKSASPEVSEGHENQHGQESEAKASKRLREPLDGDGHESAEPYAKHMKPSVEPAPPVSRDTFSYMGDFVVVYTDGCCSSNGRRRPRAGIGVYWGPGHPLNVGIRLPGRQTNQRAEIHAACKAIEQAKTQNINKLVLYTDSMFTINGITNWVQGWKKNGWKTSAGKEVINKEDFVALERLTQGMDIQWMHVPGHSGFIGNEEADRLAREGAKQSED
Source text: RNaseH expression and purification.
Oligonucleotide-directed RNA cleavage assay.

[8] = MTT cytotoxicity assay; type: cell-based; conditions: human; Table 2, HepDES19 cells
Protocol: MTT cytotoxicity assays. 1.0×10^4 HepDES19 cells per well were seeded in 96-well plates and incubated in DMEM with 10% FBS plus 1% P/S, 1% non-essential amino acids, and 1% glutamine. Compounds were diluted in medium to the indicated concentrations plus 1% DMSO and added to cells 24 hours after plating, with each concentration tested in triplicate. Medium containing the compound was refreshed daily for the next two days. Thiazolyl blue tetrazolium bromide (MTT, Sigma-Aldrich) was added to 0.25 mg/mL, the cultures were incubated for 60 minutes, metabolites were solubilized in acidic isopropanol, and absorbance was read at 570 nm.

[9] = Lactate dehydrogenase (LDH) release cytotoxicity assay; type: cell-based; conditions: human, HepDES19 cells, read-out: Toxicity in HepDES19, LDH (CC50)
Protocol: (§1) To further evaluate potential cytotoxicity of these hits, the effect of the compounds was determined for the uptake of neutral red (NR) by the lysosomes and lactate dehydrogenase (LDH) release into the supernatant due to cell membrane permeability. […] Overall, the TI values in Table 3 and FIG. 4 indicate that cytotoxicity was not the cause of antiviral efficacy, although it may have contributed to the apparent efficacy for #84, 85, 90, and 91, which all have TI values below 5.

[10] = Neutral red (NR) cytotoxicity assay; type: cell-based; conditions: human, HepDES19 cells, read-out: Toxicity in HepDES19, NR (CC50)
Protocol: as §1

[11] = MTS cytotoxicity assay (CellTiter 96); conditions: human
Protocol: (§2) HepDES19 cells were seeded at 1×10^4 cells per well in a 96 well plate in the absence of tetracycline. The test compounds were applied in triplicate to the cells 48 hours later and the cells were incubated for 72 hours. Cell viability was measured using the CellTiter 96 Aqueous Non-Radioactive Cell Proliferation Assay (Promega). [3-(4,5-dimethylthiazol-2-yl)-5-(3-carboxymethoxyphenyl)-2-(4-sulfophenyl)-2H-tetrazolium, inner salt] (MTS) and phenazine methosulfate (PMS) solution at 2 mg/mL MTS and 0.043 mg/mL PMS were added to the medium, the cells were incubated for two hours at 37° C., and absorbance was measured at 490 nm. […] Neutral red was added to the media at a final concentration of 40 μg/mL. Cells were washed with PBS and incubated with neutral red medium for two hours at 37° C. The neutral red medium was removed and the cells were washed with PBS. […] Lactate dehydrogenase (LDH) release was measured using the LDH-cytotoxicity colorimetric assay kit (BioVision). Cells were lysed with 1% Triton-X to provide the high control and DMSO vehicle treatment was the low control. Supernatants were collected and transferred to a fresh 96 well plate, and LDH reaction mixture containing the catalyst and dye solution was added. The reaction was incubated for 15-20 minutes at room temperature in a dark box and absorbance was measured at 490 nm. Percent cytotoxicity was calculated as [(test sample−low control)/([…])]×100.

[12] = test system: HepDES19 cells; experiment: MTS cytotoxicity assay (CellTiter 96); conditions: CC50 by MTS assay over EC50
Protocol: as §2

[13] = target: T1, HBV RNaseH; experiment: Detection of capsid-associated RNA:DNA heteroduplexes by Southern analysis; type: cell-based; design: expressed in transfected cells; host or cells: HepDES19 (HepG2 with a stably transfected HBV genotype D genome); conditions: HepDES19 cells, seven days; #89 at 4×EC50 (10.4 μM), #138 at 30 μM
Protocol: RNA:DNA heteroduplexes migrate as double-stranded products, but degradation of the RNA strand with exogenous RNase causes the DNAs to migrate as single-stranded species. To test for accumulation of RNA:DNA heteroduplexes, HepDES19 cells replicating HBV were treated with 4×EC50 (10.4 μM) of compound #89 and 30 μM compound #138 (negative control). HBV cores were harvested after seven days of compound treatment. Capsid-associated nucleic acids were purified and split into two pools; one pool was treated with RNaseA and the other pool was mock treated.
HepDES19 cells were plated in 100 mm dishes without tetracycline and incubated for 72 hours in the absence of tetracycline before addition of compound #89 at 4×EC50 (10.4 μM) and the negative control compound #138 at 30 μM; compound-containing media was replaced every three days. HBV nucleic acids were purified seven days after compound addition. HBV core particles were isolated by sedimentation through a sucrose cushion as described (Tavis et al., 1998). Cores were treated overnight with proteinase K (0.5 mg/mL) and 1.5% SDS at 37° C. Nucleic acids were purified by phenol-chloroform extraction and ethanol precipitation. The nucleic acids were split into two pools. One pool was treated with RNaseA (1.5 μg/μL) at 37° C. for 30 minutes and the other was mock-treated. […]
Target sequence in this assay (P03156 whole entry): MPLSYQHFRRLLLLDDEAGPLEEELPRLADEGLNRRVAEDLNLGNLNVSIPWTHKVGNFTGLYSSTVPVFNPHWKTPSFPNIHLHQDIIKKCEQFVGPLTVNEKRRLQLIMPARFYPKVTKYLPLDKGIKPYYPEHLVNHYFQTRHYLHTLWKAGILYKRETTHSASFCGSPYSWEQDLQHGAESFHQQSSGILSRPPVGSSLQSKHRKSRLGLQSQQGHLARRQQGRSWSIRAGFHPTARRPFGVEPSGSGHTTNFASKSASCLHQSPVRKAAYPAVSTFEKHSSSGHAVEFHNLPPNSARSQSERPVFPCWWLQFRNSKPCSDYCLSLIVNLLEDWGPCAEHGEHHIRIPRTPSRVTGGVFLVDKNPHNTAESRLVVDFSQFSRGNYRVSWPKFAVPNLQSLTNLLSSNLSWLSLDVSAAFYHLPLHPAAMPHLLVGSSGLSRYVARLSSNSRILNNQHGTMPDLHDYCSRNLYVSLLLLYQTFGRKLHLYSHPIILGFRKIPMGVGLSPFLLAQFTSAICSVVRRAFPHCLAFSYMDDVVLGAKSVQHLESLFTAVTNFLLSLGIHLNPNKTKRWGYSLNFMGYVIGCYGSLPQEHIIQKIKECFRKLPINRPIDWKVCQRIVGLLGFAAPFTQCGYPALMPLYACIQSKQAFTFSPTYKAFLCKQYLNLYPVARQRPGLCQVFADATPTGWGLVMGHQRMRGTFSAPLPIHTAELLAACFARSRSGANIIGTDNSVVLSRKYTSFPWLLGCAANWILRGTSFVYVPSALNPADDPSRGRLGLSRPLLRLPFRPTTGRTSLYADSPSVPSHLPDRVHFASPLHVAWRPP

[14] = HepDES19, read-out: HBV replication inhibition (EC50, μm)

Structure (SMILES) | weighted combination index (CI) with Lamivudine [1] | inhibition of variant genotype D RNAseH enzymes [2] | EC50 [3, 14] | inhibition in the molecular beacon assay [4] | Inhibition of HBV RNaseH, Molecular Beacon cleavage assay [4] | Inhibition of HBV RNaseH, Oligonucleotide directed cleavage assay [5] | log reduction at 5 µM [6] | IC50 ([7]; Table 1, quantitative values) | CC50 [8] | HBV RNaseH ([5]; Table 1, qualitative inhibition in biochemical assay) | inhibition of RNA cleavage by HBV RNaseH ([5]; compounds at 100, 60 and 20 μM) | Human RNaseH1 [7] | CC50 at 72 h [9] | CC50 at 72 h [10] | EC50 ([3]; Table 2, HepDES19 cells, read-out: EC50) | CC50 at 72 h [11] | TI (therapeutic index, CC50(MTS)/EC50) [12] | accumulation of RNA:DNA heteroduplexes [13]
O=C1Cc2ccccc2C(=O)N1O [Compound 1, 2-hydroxyisoquinoline-1,3(2H,4H)-dione] | 0.70±0.1 | about 50% | 4.2 ± 1.4 µM | inhibited | + (Dose-dependent inhibition at ≤500 μM) | + (Dose-dependent inhibition at ≤100 μM) | < 1 |  |  |  |  |  |  |  |  |  |  | 
CC(C)c1ccc(O)c(=O)c(O)c1 [Compound 46, β-thujaplicinol, reference compound] | 0.44±0.3 | about 50% |  |  |  |  |  |  |  |  |  |  |  |  |  |  |  | 
CCN(CC)C(=O)C1C(=O)N(O)C(=O)c2ccccc21 (stereo not drawn) [Compound 83] |  |  | 2.3 ± 1.6 µM | inhibited | + (Dose-dependent inhibition at ≤500 μM) | − (No inhibition detected at 100 μM) | < 1 | 3.4 µM | > 100 µM | +/− | negative |  |  |  |  |  |  | 
O=C(NCc1ccc(F)cc1)C1C(=O)N(O)C(=O)c2cc(Cl)ccc21 (stereo not drawn) [Compound 87] |  |  | 4.5 ± 3.7 µM |  | − (No inhibition detected at 500 μM) | − (No inhibition detected at 100 μM) | < 1 |  | 37 µM |  |  | +++ (detectable inhibition at 10 μM) | 52 ± 15 µM | 24 ± 1 µM | 1.6 µM | 37 ± 17 µM | 8.2 | 
COc1ccc2c(c1)C(=O)N(O)C(=O)C2C(=O)NCc1ccc(F)cc1 (stereo not drawn) [Compound 88] |  |  | 2.5 ± 0.5 µM |  | − (No inhibition detected at 500 μM) | − (No inhibition detected at 100 μM) | < 1 |  | 40 µM |  |  | +++ (detectable inhibition at 10 μM) | 57 ± 6 µM | 26 ± 2 µM |  | 40 ± 6 µM | 16 | 
COc1ccc(CNC(=O)C2C(=O)N(O)C(=O)c3cc([N+](=O)[O-])ccc32)cc1 (stereo not drawn) [Compound 89] |  |  | 2.6 ± 0.8 µM |  | − (No inhibition detected at 500 μM) | − (No inhibition detected at 100 μM) | < 1 |  |  |  |  | ++ (detectable inhibition at 20 μM) |  |  |  |  |  | caused RNA:DNA heteroduplexes to accumulate
